Experiments:
Type in all cases: biochemical
[1] = target: T1, purified recombinant human JAK1 protein (Homo sapiens, UniProt P23458); experiment: Measurement of JAK1 kinase-inhibitory activity; conditions: substrate peptide 1 μM, ATP 75 M (so in the source), 25° C., 120 minutes
T1 construct: purchased Carna Biosciences, Inc
Protocol: 1) Measurement of JAK1 Kinase-Inhibitory Activity
The activity of the compound of the present invention to inhibit the activity of JAK1 kinase was measured.
(§1) Among materials for the measurement of this inhibitory activity, a substrate peptide and a kinase protein were acquired as follows. As such a substrate peptide, a substrate peptide for QSS Assist™ JAK1-MSA assay kit (Carna Biosciences, Inc.) was purchased. As such a kinase protein, a purified recombinant human JAK1 protein (Carna Biosciences, Inc.) was purchased.
The method for measuring the inhibitory activity is as follows. First, the compounds of the present invention were each dissolved in dimethyl sulfoxide (DMSO), and a serial dilution was then prepared by the use of DMSO. Subsequently, a serial dilution solution of the compound (the final concentration of DMSO upon a kinase reaction: 5.0%) or DMSO (final concentration: 5.0%) was mixed with a solution containing the substrate peptide (final concentration: 1 μM), magnesium chloride (final concentration: 5 mM) and ATP (final concentration: 75 µM) in a buffer for kinase reaction (20 mM HEPES (pH 7.5), 2 mM dithiothreitol and 0.01% Triton X-100). Thereafter, a JAK1 protein was further added to the mixed solution, and the obtained mixture was then incubated at 25° C. for 120 minutes to carry out a kinase reaction. To the reaction solution, EDTA was added to a final concentration of 30 mM, so as to terminate the reaction. Finally, with LabChip EZ Reader II (Perkin Elmer Corp.), an unphosphorylated substrate peptide (S) and a phosphorylated peptide (P) were subjected to microchannel capillary electrophoresis, so that the two peptides were separated from each other and were then detected. The amount of a phosphorylation reaction was obtained based on the heights of the peaks of S and P, and the concentration of the compound capable of inhibiting 50% of the phosphorylation reaction was defined as an IC50 value (nM).

[2] = target: T2, purified recombinant human JAK2 protein (Homo sapiens, UniProt O60674); experiment: Measurement of JAK2 kinase-inhibitory activity; conditions: FL-Peptide 22 1 μM, ATP 10 μM, 25° C., 80 minutes
T2 construct: purchased Carna Biosciences, Inc
T2 sequence (O60674 whole entry): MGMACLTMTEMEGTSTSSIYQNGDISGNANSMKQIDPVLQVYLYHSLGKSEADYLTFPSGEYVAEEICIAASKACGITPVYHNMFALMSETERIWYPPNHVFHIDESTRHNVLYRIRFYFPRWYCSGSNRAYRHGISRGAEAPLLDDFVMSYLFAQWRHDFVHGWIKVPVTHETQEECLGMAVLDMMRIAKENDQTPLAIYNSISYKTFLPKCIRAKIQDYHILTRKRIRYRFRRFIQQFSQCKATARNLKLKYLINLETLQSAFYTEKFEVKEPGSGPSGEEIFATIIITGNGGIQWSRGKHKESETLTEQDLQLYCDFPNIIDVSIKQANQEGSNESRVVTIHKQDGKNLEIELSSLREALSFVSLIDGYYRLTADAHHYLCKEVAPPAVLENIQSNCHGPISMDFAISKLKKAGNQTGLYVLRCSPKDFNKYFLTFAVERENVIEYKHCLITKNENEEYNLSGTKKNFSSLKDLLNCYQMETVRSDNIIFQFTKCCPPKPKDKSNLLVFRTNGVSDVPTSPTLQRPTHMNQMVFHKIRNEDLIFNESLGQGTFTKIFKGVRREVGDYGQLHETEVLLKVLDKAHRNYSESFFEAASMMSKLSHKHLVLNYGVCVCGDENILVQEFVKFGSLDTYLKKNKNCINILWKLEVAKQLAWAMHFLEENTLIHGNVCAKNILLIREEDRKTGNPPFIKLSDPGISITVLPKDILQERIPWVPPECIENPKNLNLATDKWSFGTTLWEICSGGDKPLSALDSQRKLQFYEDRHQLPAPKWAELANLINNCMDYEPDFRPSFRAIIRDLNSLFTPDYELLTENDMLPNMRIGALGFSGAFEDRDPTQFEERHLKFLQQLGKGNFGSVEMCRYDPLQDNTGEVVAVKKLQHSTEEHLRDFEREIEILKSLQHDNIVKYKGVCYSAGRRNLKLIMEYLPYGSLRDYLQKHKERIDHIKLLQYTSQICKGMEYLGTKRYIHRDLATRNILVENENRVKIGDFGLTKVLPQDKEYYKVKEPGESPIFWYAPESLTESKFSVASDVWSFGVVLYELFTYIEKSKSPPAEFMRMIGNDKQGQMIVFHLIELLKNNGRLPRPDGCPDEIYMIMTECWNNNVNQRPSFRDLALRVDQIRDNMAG
Protocol: 2) Measurement of JAK2 Kinase-Inhibitory Activity
The activity of the compound of the present invention to inhibit the activity of JAK2 kinase was measured.
as §1, with “FL-Peptide 22 (Perkin Elmer Corp.)” for “a substrate peptide for QSS Assist™ JAK1-MSA assay kit (Carna Biosciences, Inc.)”, “JAK2” for “JAK1”
(§2) The method for measuring the inhibitory activity is as follows. First, a serial dilution of the compound of the present invention was prepared by the same method as that described in the above section regarding JAK1. This serial dilution solution (the final concentration of DMSO upon a kinase reaction: 5.0%) or DMSO (final concentration: 5.0%) was mixed with a solution containing the substrate peptide (final concentration: 1 μM), magnesium chloride (final concentration: 10 mM) and ATP (final concentration: 10 μM) in a buffer for kinase reaction (15 mM Tris (pH 7.5), 2 mM dithiothreitol and 0.01% Tween 20). Thereafter, a JAK2 protein was further added to the mixed solution, and the obtained mixture was then incubated at 25° C. for 80 minutes to carry out a kinase reaction. To the reaction solution, EDTA was added to a final concentration of 30 mM, so as to terminate the reaction. After termination of the reaction, the measurement and the data analysis were carried out by the same methods as those described in the above section regarding JAK1.

[3] = target: T3, purified recombinant human JAK3 protein (Homo sapiens, UniProt P52333); experiment: Measurement of JAK3 kinase-inhibitory activity; conditions: substrate peptide 1 μM, ATP 5 μM, 25° C., 80 minutes
T3 construct: purchased Carna Biosciences, Inc
T3 sequence (P52333 1-1124): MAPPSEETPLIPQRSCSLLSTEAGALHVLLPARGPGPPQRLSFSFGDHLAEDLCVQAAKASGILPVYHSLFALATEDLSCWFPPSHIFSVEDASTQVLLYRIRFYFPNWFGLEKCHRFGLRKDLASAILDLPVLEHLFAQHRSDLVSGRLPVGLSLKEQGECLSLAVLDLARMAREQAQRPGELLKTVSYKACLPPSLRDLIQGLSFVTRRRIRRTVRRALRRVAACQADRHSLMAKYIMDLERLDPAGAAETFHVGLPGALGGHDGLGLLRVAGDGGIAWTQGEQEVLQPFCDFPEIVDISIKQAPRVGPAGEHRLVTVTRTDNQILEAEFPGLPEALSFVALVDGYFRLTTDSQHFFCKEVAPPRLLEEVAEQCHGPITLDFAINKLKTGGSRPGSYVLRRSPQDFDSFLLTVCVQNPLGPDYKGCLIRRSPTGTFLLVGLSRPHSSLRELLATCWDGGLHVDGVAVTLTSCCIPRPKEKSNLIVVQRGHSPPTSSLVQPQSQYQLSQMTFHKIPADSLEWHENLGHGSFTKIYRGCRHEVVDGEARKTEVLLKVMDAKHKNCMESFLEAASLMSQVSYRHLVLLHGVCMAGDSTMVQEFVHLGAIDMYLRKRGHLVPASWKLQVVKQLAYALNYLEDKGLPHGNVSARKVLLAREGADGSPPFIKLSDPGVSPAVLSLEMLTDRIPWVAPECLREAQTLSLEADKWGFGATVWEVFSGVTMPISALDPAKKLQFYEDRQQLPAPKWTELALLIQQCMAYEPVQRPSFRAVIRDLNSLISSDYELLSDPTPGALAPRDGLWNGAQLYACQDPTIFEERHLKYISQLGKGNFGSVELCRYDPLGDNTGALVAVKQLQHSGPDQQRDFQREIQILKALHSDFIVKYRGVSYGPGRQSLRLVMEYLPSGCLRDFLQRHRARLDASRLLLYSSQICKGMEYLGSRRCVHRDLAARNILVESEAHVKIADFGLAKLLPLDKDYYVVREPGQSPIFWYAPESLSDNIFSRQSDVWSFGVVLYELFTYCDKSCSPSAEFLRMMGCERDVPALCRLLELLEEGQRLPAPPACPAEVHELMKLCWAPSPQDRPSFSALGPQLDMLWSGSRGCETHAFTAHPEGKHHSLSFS
Protocol: 3) Measurement of JAK3 Kinase-Inhibitory Activity
The activity of the compound of the present invention to inhibit the activity of JAK3 kinase was measured.
as §1, with “JAK3-MSA” for “JAK1-MSA”, “JAK3” for “JAK1”
as §2, with “5” for “10”, “(20” for “(15”, “HEPES” for “Tris”, “Triton X-100).” for “Tween 20).”, “JAK3” for “JAK2”

T1 sequence (P23458 whole entry): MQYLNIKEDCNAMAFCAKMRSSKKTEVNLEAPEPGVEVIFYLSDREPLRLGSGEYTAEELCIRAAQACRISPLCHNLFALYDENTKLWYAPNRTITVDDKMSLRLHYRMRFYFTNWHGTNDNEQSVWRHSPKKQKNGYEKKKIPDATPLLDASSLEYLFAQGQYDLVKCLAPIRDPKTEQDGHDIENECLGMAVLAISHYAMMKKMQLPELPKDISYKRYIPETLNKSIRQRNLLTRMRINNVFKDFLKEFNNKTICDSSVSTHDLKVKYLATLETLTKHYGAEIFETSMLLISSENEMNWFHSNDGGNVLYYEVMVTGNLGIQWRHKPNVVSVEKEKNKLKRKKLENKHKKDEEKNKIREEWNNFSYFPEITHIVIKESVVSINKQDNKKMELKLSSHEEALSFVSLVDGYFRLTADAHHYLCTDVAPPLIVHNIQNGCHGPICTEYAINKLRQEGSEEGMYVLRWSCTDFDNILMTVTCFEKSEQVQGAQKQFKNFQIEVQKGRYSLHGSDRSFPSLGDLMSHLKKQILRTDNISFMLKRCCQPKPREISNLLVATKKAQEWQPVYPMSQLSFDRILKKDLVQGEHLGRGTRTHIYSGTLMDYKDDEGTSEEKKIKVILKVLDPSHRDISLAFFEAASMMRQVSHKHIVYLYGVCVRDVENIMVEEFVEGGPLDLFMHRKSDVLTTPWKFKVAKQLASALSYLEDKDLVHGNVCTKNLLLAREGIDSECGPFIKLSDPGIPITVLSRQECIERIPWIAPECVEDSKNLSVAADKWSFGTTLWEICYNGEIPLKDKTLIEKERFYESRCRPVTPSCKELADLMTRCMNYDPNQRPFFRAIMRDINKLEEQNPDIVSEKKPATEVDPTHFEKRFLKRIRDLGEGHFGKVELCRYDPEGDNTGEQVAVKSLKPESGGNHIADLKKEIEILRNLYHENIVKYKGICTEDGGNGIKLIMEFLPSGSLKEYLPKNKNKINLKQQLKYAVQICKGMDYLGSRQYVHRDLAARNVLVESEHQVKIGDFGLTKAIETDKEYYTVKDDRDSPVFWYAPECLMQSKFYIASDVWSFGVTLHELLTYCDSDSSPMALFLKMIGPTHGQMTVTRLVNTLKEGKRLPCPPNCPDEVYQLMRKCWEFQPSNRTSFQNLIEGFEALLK

Structure (SMILES)	IC50 [1] [nM]	IC50 [2] [nM]	IC50 [3] [nM]
C=CC(=O)NC1CCC=C(c2c(-c3cnn(C)c3)cnc3[nH]cc(-c4cccnc4)c23)C1 (stereo not drawn) [Compound 19, N-(3-(5-(1-Methyl-1H-pyrazolo-4-yl)-3-(pyridin-3-yl)-1H-pyrrolo[2,3-b]pyridin-4-yl)cyclohex-3-en-1-yl)acrylamide]	1000	280	0.51
C=CC(=O)NC1CCC=C(c2ccnc3[nH]cc(C4=CCOCC4)c23)C1 (stereo not drawn) [Compound 31, N-(3-(3-(3,6-Dihydro-2H-pyran-4-yl)-1H-pyrrolo[2,3-b]pyridin-4-yl)cyclohex-3-en-1-yl)acrylamide]	7700	3000	0.71
